# Assay results published in US20240059680A1, “N-(2,3-DIHYDRO-1,4-BENZOXAZIN-4-YL)-3-ISOPROPYL-7-(2,3,5-TRIFLUOROPHENYL)BENZO-THIOPHENE-2-CARBOXAMIDE DERIVATIVES AND SIMILAR COMPOUNDS FOR THE TREATMENT OF HEARTWORM INFECTIONS” (ELANCO TIERGESUNDHEIT AG, priority 2020, published 2024).
# Where two headings read alike, the source gives them in different places.
# Experiments:
# [1] = system: Adult Nippostrongylus brasiliensis; test: In Vitro Assay 5: Nippostrongylus brasiliensis (NIPOBR), acetylcholine esterase readout; format: cell-based
# Experimental: In Vitro Assay 5: Nippostrongylus Brasiliensis (NIPOBR)
# Adult Nippostrongylus brasiliensis were washed with saline buffer containing 100 U/ml penicillin, 0.1 mg/ml streptomycin and 2.5 μg/ml amphotericin B. Test compounds were dissolved in DMSO and worms were incubated in medium in a final concentration of 10 μg/ml (10 ppm), 1 μg/ml (1 ppm) and 0.1 μg/ml (0.1 ppm) respectively. An aliquot of the medium was used to determine the acetylcholine esterase activity in comparison to a negative control. The principle of measuring acetylcholine esterase as readout for anthelmintic activity was described in Rapson et al (1986) and Rapson et al (1987).
# Based on the evaluation of a wide concentration range, concentration-response curves as well as EC50-values were calculated.
# C. elegans Slo-1a = C. elegans Slo-1a (Caenorhabditis elegans, UniProt Q95V25)
# Experimental: For transfection with plasmid DNA to express C. elegans Slo-1a (accession number AAL28102) CHO cells were passaged to 40% confluence before adding the transfection solution to the cell culture. The transfection solution included 300 μL OptiMEM (Life Technologies, Nr.: 31985), 2 μL (=6 μg) of plasmid DNA containing the C. elegans Slo-1a gene and 9 μL FugeneHD (Promega, Nr.: E2311), and was added to the cells prior to incubation for 48 hours at 37° C., 5% CO2. The transfection medium was exchanged for the selection medium which contains additional G418 (2 mg/ml, Invitrogen, Nr.: 10131) and the cells were seeded into 384 well plates (300 cells/well). After a few weeks, the remaining surviving cells were tested with a voltage sensitive dye (Membrane Potential Assay Kit, Molecular Devices Nr.: R8034) for K+ channel expression. Positive cell clones were purified by the limited dilution technique. For this the clone with the highest and most robust signal in the voltage sensitive dye assay was further subcloned (incubated) in 384 well plates (0.7 cells/well) to obtain clonal purity. This generated a final stable CHO cell line expressing the C. elegans Slo-1a.
# Cell culture conditions Cells were cultured at 37° C. and 5% CO2 in MEMalpha with Gutamax I (Invitrogen, Nr.: 32571), supplemented with 10% (v/v) heat inactivated fetal bovine serum (Invitrogen, Nr.: 10500), G418 (1 mg/ml, Invitrogen, Nr.: 10131). Cells were detached using Accutase (Sigma, Nr.: A6964).
# Membrane Potential Measurements
# Laboratory compound testing was performed on 384-well microtiter plates (MTPs, Greiner, Nr.: 781092). 8000 cells/well were plated onto 384-well MTPs and cultured for 20 to 24 hours at 37° C. and 5% CO2. After removal of the cell culture medium, the cells were washed once with tyrode (150 mM NaCl, 0.3 mM KCl, 2 mM CaCl2, 1 m M MgCl2, 0.8 mM NaH2PO4, 5 mM Glucose, 28 mM Hepes, pH 7.4) and then loaded with the voltage sensitive dye of the Membrane Potential Assay Kit diluted in tyrode for 1 h at room temperature. After starting the measurement of fluorescence using a FLIPR Tetra (Molecular Devices, Exc. 510-545 nm, Emm. 565-625 nm), test compounds were added followed by the addition of KCl tyrode (final assay concentration: 70 mM KCl, 2 mM CaCl2, 1 mM MgCl2, 0.8 mM NaH2PO4, 5 mM Glucose, 28 mM Hepes, pH 7.4, including the voltage sensitive dye). The measurement was completed after 7 minutes.
# EC50 values were calculated using a four-parameter plotting by the Scilligence ELN/Regmol Software Tool, Bioassay.
# D. immitis Slo-1 = D. immitis Slo-1 (Dirofilaria immitis, UniProt I0DFK5); test: In Vitro Assay 2: D. immitis Slo-1, membrane potential measurement in recombinant CHO cell line; format: cell-based
# [2] = system: Dirofilaria immitis third-stage larvae; test: In Vitro Assay 4: Dirofilaria immitis (DIROIM L4) larval motility; format: cell-based; conditions: 72 h
# [3] = system: Dirofilaria immitis microfilariae; test: In Vitro Assay 3: Dirofilaria immitis microfilariae (DIROIM L1) motility; format: cell-based; conditions: 72 h
# [4] = acetylcholine esterase activity in medium vs negative control, adult worms, read-out: EC50
# Chain of C. elegans Slo-1a (Q95V25 whole entry): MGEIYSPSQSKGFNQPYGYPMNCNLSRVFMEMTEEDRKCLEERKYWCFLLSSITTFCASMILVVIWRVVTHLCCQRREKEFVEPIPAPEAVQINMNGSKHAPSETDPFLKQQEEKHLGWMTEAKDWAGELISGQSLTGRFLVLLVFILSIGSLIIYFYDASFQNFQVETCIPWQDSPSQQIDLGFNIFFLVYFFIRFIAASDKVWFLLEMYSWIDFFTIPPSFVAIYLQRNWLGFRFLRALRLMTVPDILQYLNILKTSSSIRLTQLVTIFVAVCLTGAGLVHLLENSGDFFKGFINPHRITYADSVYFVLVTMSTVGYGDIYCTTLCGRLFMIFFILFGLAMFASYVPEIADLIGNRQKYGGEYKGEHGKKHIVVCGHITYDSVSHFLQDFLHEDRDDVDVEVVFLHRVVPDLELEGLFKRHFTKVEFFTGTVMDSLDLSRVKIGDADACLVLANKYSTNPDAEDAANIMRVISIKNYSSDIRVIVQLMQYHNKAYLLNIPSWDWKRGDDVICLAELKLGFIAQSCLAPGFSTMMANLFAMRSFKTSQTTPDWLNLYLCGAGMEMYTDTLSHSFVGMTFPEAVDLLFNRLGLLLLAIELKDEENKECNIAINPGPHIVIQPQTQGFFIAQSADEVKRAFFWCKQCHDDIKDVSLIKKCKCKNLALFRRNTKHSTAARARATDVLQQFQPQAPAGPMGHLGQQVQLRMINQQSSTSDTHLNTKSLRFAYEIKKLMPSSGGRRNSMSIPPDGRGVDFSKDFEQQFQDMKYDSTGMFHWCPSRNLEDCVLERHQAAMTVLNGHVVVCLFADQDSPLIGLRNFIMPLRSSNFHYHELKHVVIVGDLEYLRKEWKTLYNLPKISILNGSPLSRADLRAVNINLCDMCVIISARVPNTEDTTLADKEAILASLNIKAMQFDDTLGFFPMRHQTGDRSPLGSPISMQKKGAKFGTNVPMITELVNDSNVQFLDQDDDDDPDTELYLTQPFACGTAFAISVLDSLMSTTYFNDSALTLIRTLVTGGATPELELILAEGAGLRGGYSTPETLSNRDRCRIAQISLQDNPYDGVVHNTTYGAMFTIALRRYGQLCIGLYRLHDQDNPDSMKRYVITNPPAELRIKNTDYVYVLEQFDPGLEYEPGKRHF
# Chain of D. immitis Slo-1 (I0DFK5 1-1119): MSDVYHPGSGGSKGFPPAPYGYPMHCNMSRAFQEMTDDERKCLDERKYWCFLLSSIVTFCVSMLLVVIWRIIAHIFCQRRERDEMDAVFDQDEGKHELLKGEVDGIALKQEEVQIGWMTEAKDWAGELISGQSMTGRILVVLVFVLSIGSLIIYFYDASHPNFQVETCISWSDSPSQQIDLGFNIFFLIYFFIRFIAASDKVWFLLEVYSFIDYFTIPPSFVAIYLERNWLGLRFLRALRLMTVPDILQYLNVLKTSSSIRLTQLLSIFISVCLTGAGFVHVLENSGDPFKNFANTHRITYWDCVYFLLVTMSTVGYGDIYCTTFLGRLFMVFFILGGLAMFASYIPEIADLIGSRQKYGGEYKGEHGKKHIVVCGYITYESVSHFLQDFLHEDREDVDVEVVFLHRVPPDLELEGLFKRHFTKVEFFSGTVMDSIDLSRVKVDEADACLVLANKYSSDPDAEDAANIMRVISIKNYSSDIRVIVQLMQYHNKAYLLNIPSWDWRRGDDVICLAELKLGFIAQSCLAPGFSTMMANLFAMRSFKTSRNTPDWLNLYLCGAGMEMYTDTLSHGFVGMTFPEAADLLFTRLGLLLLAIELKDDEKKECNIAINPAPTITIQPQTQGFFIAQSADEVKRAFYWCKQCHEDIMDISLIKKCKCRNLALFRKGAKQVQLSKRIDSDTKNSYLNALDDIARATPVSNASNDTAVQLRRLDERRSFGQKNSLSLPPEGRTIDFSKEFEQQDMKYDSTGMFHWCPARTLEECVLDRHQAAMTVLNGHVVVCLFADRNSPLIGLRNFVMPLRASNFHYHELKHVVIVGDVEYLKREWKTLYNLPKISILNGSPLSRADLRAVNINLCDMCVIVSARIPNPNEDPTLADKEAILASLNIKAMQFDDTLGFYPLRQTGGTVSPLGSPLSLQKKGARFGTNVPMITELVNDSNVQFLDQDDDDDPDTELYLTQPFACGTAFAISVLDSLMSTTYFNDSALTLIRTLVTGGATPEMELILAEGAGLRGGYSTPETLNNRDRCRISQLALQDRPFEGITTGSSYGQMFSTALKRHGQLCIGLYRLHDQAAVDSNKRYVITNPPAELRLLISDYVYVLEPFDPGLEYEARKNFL
Structure (SMILES),"EC50 [1, 4]",EC50 (C. elegans Slo-1a),EC50 (D. immitis Slo-1),EC50 [2],EC50 [3],EC50 [1]
"CC(C)n1c(C(=O)NN2CCOc3ccccc32)nc2c(-c3cc(F)cc(F)c3F)nccc21 [Example 12.1, N-(2,3-Dihydro-4H-benzo[b][1,4]oxazin-4-yl)-1-isopropyl-4-(2,3,5-trifluorophenyl)-1H-imidazo[4,5-c]pyridine-2-carboxamide]",> 1 µg/mL,> 1000 nM,> 1000 nM,< 0.1 µg/mL,0.1 to 1 µg/mL,–
"Cc1nn2c(C(C)C)c(C(=O)NN3CCOc4ccccc43)cnc2c1-c1c(F)cccc1F [Example 3.1, 3-(2,6-Difluorophenyl)-N-(2,3-dihydro-1,4-benzoxazin-4-yl)-7-isopropyl-2-methyl-pyrazolo[1,5-a]pyrimidine-6-carboxamide]",> 1 µg/mL,< 100 nM,100 to 1000 nM,< 0.1 µg/mL,< 0.1 µg/mL,–
"CC(C)c1c(C(=O)NN2CCOc3ccccc32)ccc2c1nnn2-c1cc(F)cc(F)c1F [Example 16.1, N-(2,3-Dihydro-4H-benzo[b][1,4]oxazin-4-yl)-4-isopropyl-1-(2,3,5-trifluorophenyl)-1H-benzo[d][1,2,3]triazole-5-carboxamide]",> 1 µg/mL,> 1000 nM,> 1000 nM,> 1 µg/mL,> 1 µg/mL,–
"Cc1nn(-c2cc(F)cc(F)c2F)c2ncc(C(=O)NN3CCOc4ccccc43)c(C(C)C)c12 [Example 10.2, N-(2,3-Dihydro-4H-benzo[b][1,4]oxazin-4-yl)-4-isopropyl-3-methyl-1-(2,3,5-trifluorophenyl)-1H-pyrazolo[3,4-b]pyridine-5-carboxamide]",> 1 µg/mL,> 1000 nM,> 1000 nM,> 1 µg/mL,0.1 to 1 µg/mL,–
"O=C(NN1CCOc2ccccc21)c1sc2c(-c3cc(F)cc(F)c3F)ccnc2c1N1CC(F)C1 [Example 6.6, N-(2,3-dihydro-4H-benzo[b][1,4]oxazin-4-yl)-3-(3-fluoroazetidin-1-yl)-7-(2,3,5-trifluorophenyl)thieno[3,2-b]pyridine-2-carboxamide]",> 1 µg/mL,100 to 1000 nM,> 1000 nM,0.1 to 1 µg/mL,< 0.1 µg/mL,–
"CC(C)c1c(C(=O)NN2CCOc3ccccc32)sc2c(-c3cc(F)cc(F)c3F)ccnc12 [6,7]",–,–,–,–,–,< 0.1 µg/mL
"CC(C)c1c(C(=O)NN2CCOc3ccccc32)[nH]c2c(-c3cc(F)cc(F)c3F)cccc12 [Example 17.1, N-(2,3-dihydro-1,4-benzoxazin-4-yl)-3-(1-methylethyl)-7-[2,3,5-tris(fluoranyl)-phenyl]-1H-indole-2-carboxamide]",> 1 µg/mL,> 1000 nM,> 1000 nM,> 1 µg/mL,< 0.1 µg/mL,–
"CC(C)n1c(C(=O)NN2CCOc3ccccc32)nc2c(-c3cc(F)cc(F)c3F)cccc21 [Example 13.1, N-(2,3-Dihydro-4H-benzo[b][1,4]oxazin-4-yl)-1-isopropyl-4-(2,3,5-trifluorophenyl)-1H-benzo[d]imidazole-2-carboxamide]",> 1 µg/mL,100 to 1000 nM,> 1000 nM,0.1 to 1 µg/mL,0.1 to 1 µg/mL,–
"CN(C)c1c(C(=O)NN2CCOc3ccccc32)cnc2c1ccn2-c1cc(F)cc(F)c1F [Example 18.1, N-(2,3-Dihydro-4H-benzo[b][1,4]oxazin-4-yl)-4-(dimethylamino)-1-(2,3,5-trifluorophenyl)-1H-pyrrolo[2,3-b]pyridine-5-carboxamide]",> 1 µg/mL,100 to 1000 nM,> 1000 nM,< 0.1 µg/mL,–,–
"CC(C)c1c(C(=O)NN2CCOc3ccccc32)sc2c(-c3cc(F)cc(F)c3F)c(F)cnc12 [Example 6.3, N-(2,3-Dihydro-4H-benzo[b][1,4]oxazin-4-yl)-6-fluoro-3-isopropyl-7-(2,3,5-trifluoro-phenyl)thieno[3,2-b]pyridine-2-carboxamide]",–,< 100 nM,< 100 nM,< 0.1 µg/mL,< 0.1 µg/mL,< 0.1 µg/mL
"CC(C)c1c(C(=O)NN2CCOc3ccccc32)sc2c(-c3cc(F)cc(F)c3F)ccnc12 [Example 6.7, N-(2,3-Dihydro-4H-benzo[b][1,4]oxazin-4-yl)-3-isopropyl-7-(2,3,5-trifluorophenyl)-thieno [3,2-b]pyridine-2-carboxamide]",–,< 100 nM,< 100 nM,< 0.1 µg/mL,< 0.1 µg/mL,–
"O=C(NN1CCOc2ccccc21)c1sc2c(-c3cc(F)cc(F)c3F)ccnc2c1N1CCOCC1 [Example 6.8, N-(2,3-Dihydro-4H-benzo[b][1,4]oxazin-4-yl)-3-morpholino-7-(2,3,5-trifluoro-phenyl)thieno[3,2-b]pyridine-2-carboxamide]",> 1 µg/mL,< 100 nM,100 to 1000 nM,< 0.1 µg/mL,< 0.1 µg/mL,–
"O=C(NN1CCOc2ccccc21)c1sc2c(-c3cc(F)cc(F)c3F)c(F)cnc2c1N1CCOCC1 [Example 6.4, N-(2,3-Dihydro-4H-benzo[b][1,4]oxazin-4-yl)-6-fluoro-3-morpholino-7-(2,3,5-trifluorophenyl)thieno[3,2-b]pyridine-2-carboxamide]",0.1 to 1 µg/mL,< 100 nM,100 to 1000 nM,< 0.1 µg/mL,< 0.1 µg/mL,–
"CC(C)c1c(C(=O)NN2CCOc3ccccc32)cnc2c(-c3cc(F)cc(F)c3F)ncn12 [Example 11.1, N-(2,3-Dihydro-4H-benzo[b][1,4]oxazin-4-yl)-4-isopropyl-8-(2,3,5-trifluoro-phenyl)-imidazo[1,5-a]pyrimidine-3-carboxamide]",> 1 µg/mL,100 to 1000 nM,> 1000 nM,< 0.1 µg/mL,0.1 to 1 µg/mL,–
"Cc1nn2c(C(C)C)c(C(=O)NN3CCOc4ccccc43)nnc2c1-c1c(F)cccc1F [Example 5.1, 8-(2,6-Difluorophenyl)-N-(2,3-dihydro-1,4-benzoxazin-4-yl)-4-isopropyl-7-methyl-pyrazolo[5,1-c][1,2,4]triazine-3-carboxamide]",> 1 µg/mL,100 to 1000 nM,> 1000 nM,0.1 to 1 µg/mL,< 0.1 µg/mL,–
"CC(C)c1c(C(=O)NN2CCOc3ccccc32)nc2c(-c3cc(F)cc(F)c3F)cccn12 [Example 7.1, N-(2,3-dihydro-4H-benzo[b][1,4]oxazin-4-yl)-3-isopropyl-8-(2,3,5-trifluoro-phenyl)imidazo[1,2-a]pyridine-2-carboxamide]",> 1 µg/mL,> 1000 nM,> 1000 nM,0.1 to 1 µg/mL,0.1 to 1 µg/mL,–
"CC(C)c1c(C(=O)NN2CCOc3ccccc32)sc2c(-c3cc(F)cc(F)c3F)cccc12 [Example 1.1, N-(2,3-dihydro-1,4-benzoxazin-4-yl)-3-isopropyl-7-(2,3,5-trifluorophenyl)benzo-thiophene-2-carboxamide]",0.1 to 1 µg/mL,< 100 nM,> 1000 nM,< 0.1 µg/mL,< 0.1 µg/mL,–
"CC(C)c1c(C(=O)NN2CCOc3ccccc32)nc2c(-c3cc(F)cc(F)c3F)nccn12 [Example 8.1, N-(2,3-Dihydro-4H-benzo[b][1,4]oxazin-4-yl)-3-isopropyl-8-(2,3,5-trifluorophenyl)-imidazo[1,2-a]pyrazine-2-carboxamide]",> 1 µg/mL,> 1000 nM,> 1000 nM,0.1 to 1 µg/mL,0.1 to 1 µg/mL,–
"CC(C)c1c(C(=O)NN2CCOc3ccccc32)cnc2c1cnn2-c1cc(F)cc(F)c1F [Example 10.1, N-(2,3-Dihydro-4H-benzo[b][1,4]oxazin-4-yl)-4-isopropyl-1-(2,3,5-trifluorophenyl)-1H-pyrazolo[3,4-b]pyridine-5-carboxamide]",> 1 µg/mL,100 to 1000 nM,> 1000 nM,< 0.1 µg/mL,0.1 to 1 µg/mL,–
"O=C(NN1CCOc2ccccc21)c1sc2c(-c3cc(F)cc(F)c3F)c(F)cnc2c1N1CC(F)C1 [Example 6.2, N-(2,3-dihydro-4H-benzo[b][1,4]oxazin-4-VI)-6-fluoro-3-(3-fluoroazetidin-1-yl)-7-(2,3,5-trifluorophenyl)thieno[3,2-b]pyridine-2-carboxamide]",> 1 µg/mL,100 to 1000 nM,> 1000 nM,0.1 to 1 µg/mL,< 0.1 µg/mL,–
"CC(C)(O)c1c(C(=O)NN2CCOc3ccccc32)sc2c(-c3cc(F)cc(F)c3F)c(F)cnc12 [Example 6.1, N-(2,3-Dihydro-4H-benzo[b][1,4]oxazin-4-yl)-6-fluoro-3-(2-hydroxypropan-2-yl)-7-(2,3,5-trifluorophenyl)thieno[3,2-b]pyridine-2-carboxamide]",–,< 100 nM,< 100 nM,< 0.1 µg/mL,< 0.1 µg/mL,< 0.1 µg/mL
"CC(C)c1c(C(=O)NN2CCOc3ccccc32)n(C)c2c(-c3cc(F)cc(F)c3F)cccc12 [Example 17.2, N-(2,3-Dihydro-4H-benzo[b][1,4]oxazin-4-yl)-3-isopropyl-1-methyl-7-(2,3,5-trifluoro-phenyl)-1H-indole-2-carboxamide]",> 1 µg/mL,> 1000 nM,> 1000 nM,> 1 µg/mL,–,–
"CC(C)c1c(C(=O)NN2CCOc3ccccc32)oc2c(-c3cc(F)cc(F)c3F)cccc12 [Example 19.1, N-(2,3-Dihydro-1,4-benzoxazin-4-yl)-3-(1-methylethyl)-7-[2,3,5-tris(fluoranyl)-phenyl]benzofuran-2-carboxamide]",0.1 to 1 µg/mL,–,–,< 0.1 µg/mL,–,–
